Experimental findings from PubChem BioAssay (NCI) are described below.

Holding throughout (assay): NCI-60 cell line screen, 48 h
The test system of experiment [1] is A549 NSCLC.
The test system of experiment [2] is NCI-H226 lung.
Experiment [3] deals with CAKI-1 renal.
For experiment [4], the system named is HCC-2998 colon.
For experiment [5], the system named is SN12C renal.
Experiment [6] has as its system SF-268 CNS.
The subject of experiment [7] is SW-620 colon.
For experiment [8], the system named is MOLT-4 leukemia.
In experiment [9] the test system is SK-MEL-5 melanoma.
For experiment [10], the system named is SK-OV-3 ovarian.

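Where inhibition never reached the appropriate level, the endpoint shown equals the highest concentration tested. Otherwise, values were interpolated linearly from a five-concentration, 48-hour dose response in 96-well plates. The concentration for 50% growth inhibition is given as GI50. TGI marks complete inhibition of growth.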

Regarding `COc1ccc(CNc2c3ccccc3nc3ccc(OC)cc23)cc1`, the GI50 in experiment [1] was 2.59 µM; in [2], 2.54 µM; in [3], 1.76 µM; in [4], 1.85 µM; in experiment [5], 3.31 µM; in experiment [6] it was 3.75 µM. Besides, the GI50 was 2.08 µM in experiment [7], 2.75 µM in [8], 1.95 µM in experiment [9] and 4.83 µM in experiment [10]. Besides, the TGI in [1] stood at 7.46 µM; in [2] it was 9.14 µM; in experiment [3], 3.72 µM; in experiment [4], 3.76 µM; in experiment [5] it was 12.6 µM; in experiment [6], 15.2 µM. Moreover, the TGI turned out to be 7.22 µM in experiment [7], 10.3 µM in [8], 3.87 µM in [9] and 17.2 µM in experiment [10].
Regarding `COc1cc2c(Oc3ccc4[nH]c(C)cc4c3F)ccnc2cc1OCC1(N)CC1`, the GI50 in [2] was 0.894 µM; in [3], 1.04 µM; in experiment [4], 2.36 µM; in [5], 1.78 µM; in [6] it was 1.39 µM; in experiment [7], 0.757 µM. Also, the results for the GI50 in experiment [8], in experiment [9] and in experiment [10] were 0.971 µM, 0.967 µM and 3.61 µM, respectively. For the same compound, the TGI turned out to be 14.9 µM in [2]; 6.99 µM in [3]; 11.8 µM in experiment [4]; 7.56 µM in experiment [5]; 12.9 µM in experiment [6]; 11.8 µM in [7]. Moreover, the TGI was 14 µM in experiment [8], 2.24 µM in experiment [9] and 80.2 µM in [10].
Turning to `COc1ccc(C(=O)OC2C=COC(C)C2OC(=O)c2ccc(OC)cc2)cc1` (stereo not given), the TGI is greater than 100 µM in experiment [1]; greater than 100 µM in [2]; greater than 100 µM in [3]; greater than 100 µM in [4]; greater than 64.5 µM in experiment [5]; 44.7 µM in experiment [6]. Further, the TGI is 35.1 µM in experiment [7], 56 µM in experiment [8], 32.1 µM in experiment [9] and greater than 100 µM in [10].
Turning to `NC1CCCCC1N.O=S(=O)([O-])CCCN1CCOCC1.O=S(=O)([O-])CCCN1CCOCC1.[Pt+4]`, the GI50 in experiment [1] was 4.72 µM; in experiment [2] it was 22.5 µM; in experiment [3], 5.01 µM; in experiment [4], 36.3 µM; in experiment [5], 10.7 µM; in experiment [6], 9.92 µM. The GI50 in experiment [7] was 1.32 µM; in experiment [8] it was 2.33 µM; in [9] it was 9.83 µM; in experiment [10], greater than 100 µM. For the same compound, the TGI was greater than 100 µM in experiment [1]; greater than 100 µM in experiment [2]; greater than 85.8 µM in [3]; greater than 100 µM in experiment [4]; greater than 100 µM in [5]; greater than 100 µM in [6]. Besides, the TGI in [7] was 17.1 µM; in experiment [8] it was 14.1 µM; in experiment [9], 22.2 µM; in experiment [10], greater than 100 µM.
`O=C(Nc1ccc(F)cc1)C(=O)C(C1OC(=O)c2ccccc21)[N+](=O)[O-]` (stereo not given): the TGI in [1], in [2], in experiment [3], in experiment [4], in [6] and in [7] was greater than 100 µM throughout. The TGI in experiment [8], in experiment [9] and in experiment [10] was greater than 100 µM in each case.
Take `O=c1[nH]ccc2nc(N3CCC(O)CC3)nc(Nc3cccc(C(F)(F)F)c3)c12`: the GI50 in [1] was 3.83 µM; in [2] it was 3.2 µM; in experiment [3] it was 0.282 µM; in [4] it was 11.2 µM; in [5], 4.07 µM; in experiment [6], 3.06 µM. In addition, the GI50 in [7] was 1.91 µM; in experiment [8], 2.24 µM; in experiment [9], 1.23 µM; in [10] it was 0.486 µM. In addition, the TGI in experiment [1] is greater than 100 µM; in experiment [2], 17.7 µM; in [3], 6.3 µM; in experiment [4], 38.4 µM; in [5], greater than 100 µM; in [6], 35.3 µM. Also, the TGI in experiment [7] is 12.9 µM; in experiment [8], 7.75 µM; in experiment [9] it was 2.5 µM; in experiment [10] it was greater than 100 µM.
On to `COc1cccc(-c2nc3sccn3c2-c2ccnc(NCCNS(=O)(=O)c3ccccc3)c2)c1`, for which the GI50 in [1] was 2.68 µM; in experiment [2], 2.48 µM; in experiment [3] it was 1.42 µM; in experiment [4], 6.23 µM; in experiment [5], 2.91 µM; in experiment [6], 3.54 µM. Moreover, the GI50 is 4.3 µM in experiment [7], 2.03 µM in [8], 1.53 µM in [9] and 5.11 µM in experiment [10]. Moreover, the TGI in [1] is greater than 100 µM; in [2], 10.5 µM; in experiment [3], greater than 100 µM; in experiment [4] it was greater than 100 µM; in [5] it was greater than 100 µM; in experiment [6], greater than 100 µM. The TGI was greater than 100 µM in [7], greater than 100 µM in [8], 4.89 µM in [9] and greater than 100 µM in [10].
For `COC(=O)C12C3C4C5C3(C#N)C1C5(C(=O)OC)C42C(=O)N(C(C)C)C(C)C` (stereo not given), the TGI in experiment [1], in experiment [2], in experiment [3], in experiment [4], in experiment [5] and in experiment [6] was greater than 100 µM throughout. Besides, the TGI in experiment [7] was greater than 65.3 µM; in experiment [8], greater than 100 µM; in [9], greater than 100 µM; in experiment [10], greater than 100 µM.
As for `C=CCN(CC=C)C(=O)c1cc(C)nc2c1c(=O)n(-c1ccccc1)c(=O)n2CC(O)CN1CCN(c2ncccn2)CC1` (stereo not given), the GI50 was greater than 100 µM in [2]; greater than 100 µM in experiment [3]; greater than 100 µM in experiment [4]; greater than 100 µM in experiment [5]; 17.2 µM in experiment [6]; greater than 100 µM in experiment [7]. Further, the GI50 in experiment [8], in [9] and in experiment [10] was greater than 100 µM in each case. The TGI in experiment [2], in experiment [3], in experiment [4], in experiment [5], in experiment [6] and in experiment [7] was greater than 100 µM in each case. Also, the TGI in experiment [8], in experiment [9] and in [10] was greater than 100 µM in each case.
In the case of `CC(C)CNc1nc(-c2ccccc2)nc2ccccc12`, the GI50 was 15.1 µM in [1]; 16.9 µM in experiment [2]; 15.4 µM in [3]; 15.9 µM in [4]; 18.4 µM in [5]; 18.3 µM in experiment [6]. In addition, the GI50 in experiment [8] is 13.7 µM; in experiment [9] it was 15.2 µM; in experiment [10] it was 15.3 µM. Further, the TGI in experiment [1] worked out at 31.8 µM; in [2] it was 35 µM; in experiment [3] it was 29.8 µM; in experiment [4], 29.8 µM; in [5], 38.6 µM; in [6], 37.4 µM. Moreover, the TGI in experiment [8] is 38.1 µM; in experiment [9], 29 µM; in [10] it was 31.3 µM.
Take `COc1cc(C(c2cc3c(cc2O)OCO3)N2CCCCC2)cc(OC)c1OC` (stereo not given): the TGI is 45.8 µM in [1]; 41.6 µM in experiment [2]; 27.6 µM in experiment [3]; 39 µM in [4]; 25.1 µM in experiment [5]; 31.5 µM in experiment [6]. Besides, the TGI in [7] came to 12 µM; in experiment [9] it was 34.6 µM; in [10], 56.2 µM.
Regarding `CCN(CC)CCNC(=O)c1nn(C)c(=S)[nH]c1=S`, the TGI in [1], in experiment [2], in experiment [3], in [4], in experiment [5] and in experiment [7] was greater than 100 µM in each case. Also, the TGI in experiment [8], in [9] and in experiment [10] was greater than 100 µM in each case.
`NC(=N\N=C/c1cccc([N+](=O)[O-])c1)/C(N)=N\N=C/c1cccc([N+](=O)[O-])c1`: the GI50 in [2], in experiment [3], in experiment [4], in [5], in experiment [6] and in experiment [7] was greater than 100 µM in each case. Also, the GI50 in experiment [8], in experiment [9] and in [10] was greater than 100 µM throughout. The TGI in experiment [2], in experiment [3], in [4], in [5], in experiment [6] and in experiment [7] was greater than 100 µM throughout. The TGI in experiment [8], in experiment [9] and in experiment [10] was greater than 100 µM throughout.
With `CC/C(=C(/CC)c1ccc(O)cc1)c1ccc([O-])cc1.CC/C(=C(/CC)c1ccc(O)cc1)c1ccc([O-])cc1.O=C([CH-]C(=O)c1ccccc1)c1ccccc1.O=C([CH-]C(=O)c1ccccc1)c1ccccc1.[Ti+4]`, the GI50 was 7.99 µM in experiment [1]; 23.6 µM in [2]; 16.3 µM in experiment [3]; 12.2 µM in experiment [4]; 14 µM in experiment [5]; 18 µM in experiment [6]. Moreover, the GI50 in experiment [7] was 6.35 µM; in experiment [8] it was 4.93 µM; in experiment [10], 19.8 µM. Further, the TGI was determined as 32.3 µM in experiment [1]; 45.5 µM in experiment [2]; 61 µM in experiment [3]; 24.6 µM in [4]; 26.9 µM in experiment [5]; 73.2 µM in [6]. Besides, the TGI is 19.1 µM in experiment [7], greater than 100 µM in experiment [8] and 52.2 µM in experiment [10].
For `O=C(N/N=C/c1ccccc1Cl)c1ccccc1Nc1ccnc(C(F)(F)F)c1`, the GI50 was 3.01 µM in experiment [1]; 0.811 µM in experiment [2]; 0.389 µM in [3]; 1.74 µM in experiment [4]; 1.27 µM in experiment [5]; 1.8 µM in experiment [6]. Besides, the GI50 in experiment [7] is 1.53 µM; in experiment [9], 0.627 µM; in [10], 1.43 µM. For the same compound, the TGI is 8.91 µM in [1]; 3.52 µM in [2]; 2.72 µM in experiment [3]; 7.24 µM in experiment [4]; 12.7 µM in experiment [5]; 10.5 µM in [6]. The TGI in experiment [7] turned out to be 14.5 µM; in experiment [9] it was 2.71 µM; in experiment [10], 5.31 µM.
`CSc1nc(NC(=O)O)c(N(C(C)=O)C(=O)O)c(=O)n1C`: the TGI in experiment [1], in experiment [2], in experiment [3], in experiment [4], in experiment [5] and in experiment [6] was greater than 100 µM in each case. Also, the TGI in experiment [7], in [8] and in experiment [9] was greater than 100 µM throughout.
With `Cc1cc2cc3c(C)cc(=O)oc3c(C)c2o1`, the TGI in experiment [1], in [2], in experiment [3], in experiment [4], in experiment [5] and in experiment [6] was greater than 100 µM throughout. Besides, the TGI in [7], in experiment [8] and in [9] was greater than 100 µM in each case.
Turning to `CCC[CH2][Sn]([CH2]CCC)([O]C(=O)C(N)CSC)[O]C(=O)C(N)CSC` (stereo not given), the GI50 was 27.7 µM in experiment [1]; 20.5 µM in [2]; 5 µM in experiment [3]; 13.1 µM in experiment [4]; 8.82 µM in experiment [5]; 4.06 µM in experiment [6]. Also, the GI50 in experiment [7] was 6.08 µM; in experiment [8], 2.42 µM; in experiment [9], 11.6 µM. The TGI in experiment [1] is greater than 79.7 µM; in [2], 34.9 µM; in [3] it was 17.4 µM; in experiment [4], 30.5 µM; in experiment [5], 23.4 µM; in experiment [6] it was 11.3 µM. The TGI in experiment [7] stood at 23 µM; in experiment [8], 7.65 µM; in experiment [9] it was 25 µM.
Turning to `Cc1ccc(/C=C/C(=O)c2sc(-c3cccnc3)nc2C)cc1`, the TGI in experiment [1], in experiment [2], in [3], in experiment [4], in experiment [5] and in experiment [7] was greater than 100 µM each time. For the same compound, the TGI in [8], in experiment [9] and in [10] was greater than 100 µM throughout.
